In ChEMBL document CHEMBL1201862, “PubChem BioAssay data set” (2004):
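All cell lines were grown in 96-well plates and treated with compound for 48 hours. Abbreviation: GI50, concentration required for 50% inhibition of growth.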 Calls of active or inactive are those of the source. Cut-off read from the data, not from the text of the source: active = GI50 up to about 1.1 µM and inactive = higher.

Columns and labels:
Experiment in all cases: NCI tumour cell line growth inhibition, 48 h
[1] = tested on: 786-0
[2] = tested on: HOP-62
[3] = tested on: M14
[4] = tested on: MOLT-4
[5] = tested on: Malme-3M
[6] = tested on: NCI-H226
[7] = tested on: OVCAR-3
[8] = tested on: OVCAR-5
[9] = tested on: SF-539
[10] = tested on: UO-31
[11] = tested on: COLO 205
[12] = tested on: HOP-92
[13] = tested on: NCI-H522

| SMILES | GI50 [1] | GI50 [2] | GI50 [3] | GI50 [4] | GI50 [5] | GI50 [6] | GI50 [7] | GI50 [8] | GI50 [9] | GI50 [10] | GI50 [11] | GI50 [12] | GI50 [13] |
| --- | --- | --- | --- | --- | --- | --- | --- | --- | --- | --- | --- | --- | --- |
| CCOC(=O)C(C)(c1cn(C)c2ccccc12)c1cn(C)c2ccccc12 | 69.2 µM (inactive) | 76.2 µM (inactive) | > 100 µM (inactive) | > 100 µM (inactive) | 67.3 µM (inactive) | 30.6 µM (inactive) | 45.8 µM (inactive) | > 100 µM (inactive) | 49.7 µM (inactive) | > 100 µM (inactive) | – | – | – |
| CN1C(=O)C(C)(C)NS1(=O)=O | > 100 µM (inactive) | > 100 µM (inactive) | > 100 µM (inactive) | > 100 µM (inactive) | > 100 µM (inactive) | – | > 100 µM (inactive) | > 100 µM (inactive) | > 100 µM (inactive) | > 100 µM (inactive) | > 100 µM (inactive) | – | – |
| CCc1cccc(C)c1NC(=O)C(=O)Cc1nc2ccccc2s1 | > 100 µM (inactive) | – | > 100 µM (inactive) | > 100 µM (inactive) | > 100 µM (inactive) | > 100 µM (inactive) | > 100 µM (inactive) | – | > 100 µM (inactive) | > 100 µM (inactive) | > 100 µM (inactive) | 0.47 µM (active) | > 100 µM (inactive) |
| O=C(CC1(O)C(=O)Nc2ccccc21)c1cccc(O)c1 (stereo unspecified) | > 100 µM (inactive) | > 100 µM (inactive) | > 100 µM (inactive) | > 100 µM (inactive) | > 100 µM (inactive) | > 100 µM (inactive) | > 100 µM (inactive) | > 100 µM (inactive) | > 100 µM (inactive) | 46.1 µM (inactive) | > 100 µM (inactive) | > 100 µM (inactive) | > 100 µM (inactive) |
| C#CC1(O)CCC2C3CCc4cc(Oc5nc(F)nc(-c6c7ccccc7c7sc8ccccc8n67)n5)ccc4C3CC[C@@]21C (stereo partly specified) | > 100 µM (inactive) | > 100 µM (inactive) | 26.1 µM (inactive) | 42 µM (inactive) | > 100 µM (inactive) | > 100 µM (inactive) | > 100 µM (inactive) | > 100 µM (inactive) | > 100 µM (inactive) | > 100 µM (inactive) | > 100 µM (inactive) | > 100 µM (inactive) | 14.4 µM (inactive) |
| C/N=N/N(C)C(=O)NC | > 100 µM (inactive) | > 100 µM (inactive) | > 100 µM (inactive) | > 100 µM (inactive) | > 100 µM (inactive) | – | > 100 µM (inactive) | > 100 µM (inactive) | > 100 µM (inactive) | > 100 µM (inactive) | > 100 µM (inactive) | > 100 µM (inactive) | > 100 µM (inactive) |
| NC(=O)COc1c(Br)cc(Br)cc1Br | > 100 µM (inactive) | > 100 µM (inactive) | > 100 µM (inactive) | > 100 µM (inactive) | > 100 µM (inactive) | > 100 µM (inactive) | > 100 µM (inactive) | > 100 µM (inactive) | > 100 µM (inactive) | > 100 µM (inactive) | > 100 µM (inactive) | – | > 100 µM (inactive) |
| O=C1CN(C(=O)c2ccccc2)Cc2[nH]c3ccccc3c21 | > 100 µM (inactive) | > 100 µM (inactive) | > 100 µM (inactive) | > 100 µM (inactive) | > 100 µM (inactive) | > 100 µM (inactive) | > 100 µM (inactive) | > 100 µM (inactive) | > 100 µM (inactive) | > 100 µM (inactive) | > 100 µM (inactive) | > 100 µM (inactive) | > 100 µM (inactive) |
| c1cncc(C2N3CCCCC3[C@@H]3c4[nH]c5ccccc5c4CCN23)c1 (stereo partly specified) | > 100 µM (inactive) | > 100 µM (inactive) | > 100 µM (inactive) | > 100 µM (inactive) | – | – | > 100 µM (inactive) | > 100 µM (inactive) | > 100 µM (inactive) | > 100 µM (inactive) | – | > 100 µM (inactive) | – |
| COC1=CC(=O)C2[C@H]3Cc4ccccc4[C@H]3C2(C)C1=O (stereo partly specified) | > 100 µM (inactive) | > 100 µM (inactive) | > 100 µM (inactive) | 91.6 µM (inactive) | > 100 µM (inactive) | 81.8 µM (inactive) | > 100 µM (inactive) | > 100 µM (inactive) | > 100 µM (inactive) | 34.7 µM (inactive) | > 100 µM (inactive) | > 100 µM (inactive) | 68.4 µM (inactive) |
| COc1cc(C(=O)N[C@H]2CCc3cc(OC)c(OC)c(OC)c3-c3ccc(SC)c(=O)cc32)cc(OC)c1OC | 0.0223 µM (active) | 0.0121 µM (active) | 0.00832 µM (active) | 0.00916 µM (active) | 0.02 µM (active) | < 0.01 µM (active) | 0.00502 µM (active) | 0.0107 µM (active) | 0.00515 µM (active) | 0.019 µM (active) | 0.0342 µM (active) | 0.06 µM (active) | 0.00428 µM (active) |
| CCCOc1ccc(/C=C\c2cc(OC)c(OC)c(OC)c2)cc1 | > 100 µM (inactive) | > 100 µM (inactive) | 53.3 µM (inactive) | – | 62.2 µM (inactive) | > 100 µM (inactive) | > 100 µM (inactive) | 10.1 µM (inactive) | 74.3 µM (inactive) | 33.2 µM (inactive) | 39.2 µM (inactive) | 34.7 µM (inactive) | 13.2 µM (inactive) |
